Test system: COX-2 gene expression
Assay: Effects of test compounds on COX-2 gene expression in gastric cancer cell line MKN-45 (real-time PCR)
Type: cell-based, human
Details: MKN-45 cells, test compound 1 μM, 16 hours, vs DMSO control = 100%, mean of triplicate
Procedure: The human gastric cancer cell line MKN-45 obtained from JCRB (Japanese Collection of Research Bioresources) was cultured in Iscove's Modified Dulbecco's Medium (product of GIBCO) containing 10% fetal calf serum for 24 hours using a 6-well plate and a 5% CO2 incubator (37° C., 5% CO2). Test compound solutions prepared by diluting each test compound with DMSO (solvent) to a final concentration of 1 μM, and the same amount of DMSO as a control solution (containing no test compound) were added to the wells of the 6-well plate, and the cells were cultured in a CO2 incubator (37° C., 5% CO2) for 16 hours.
The cells were recovered, and Total RNA was prepared from the cells using Trizole reagent (product of Invitrogen) according to the standard method. Real-time PCR was performed using TaqManO Gene Expression Assays for human COX-2 (product of Applied Biosystems), and the amount of COX-2 mRNA in each test-compound-treated cell were determined. […]
PCR was performed according to the manufacturer's instructions for TaqMan® Gene Expression Assays (product of Applied Biosystems). […] The amount of each mRNA was determined from the calibration curve using the ABI PRISM 7000 Sequence Detection System. […]

`COc1ccc(CC2SC(=S)NC2=O)c2c1N(CCC(C)C)C(=O)CC2` (stereo not shown) [Test Compound 965] was tested, and the “COX-2 gene expression inhibition (%)” value was >20%.
